The record followed here is patent US8476261B2, “Spirocyclic aminoquinolones as GSK-3 inhibitors” (Kyorin Pharmaceutical Co., Ltd., priority 2007, dated 2013).

In the first test the target is T1, recombinant full-length human GSK3β (Homo sapiens, UniProt P49841).
T1 construct: recombinant full-length human GSK3β (Upstate); purchased Upstate
T1 sequence (P49841 whole entry): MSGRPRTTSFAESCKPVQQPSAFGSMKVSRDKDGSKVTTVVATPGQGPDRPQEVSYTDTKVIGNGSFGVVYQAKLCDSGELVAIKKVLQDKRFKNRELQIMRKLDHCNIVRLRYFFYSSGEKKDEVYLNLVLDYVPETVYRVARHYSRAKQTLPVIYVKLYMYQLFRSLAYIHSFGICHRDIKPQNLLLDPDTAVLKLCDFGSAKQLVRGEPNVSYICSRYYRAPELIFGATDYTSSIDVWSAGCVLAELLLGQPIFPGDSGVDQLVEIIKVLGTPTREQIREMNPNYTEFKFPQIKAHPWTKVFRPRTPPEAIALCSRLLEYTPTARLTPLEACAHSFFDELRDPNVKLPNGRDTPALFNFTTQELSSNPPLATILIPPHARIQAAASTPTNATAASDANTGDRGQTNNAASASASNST
Kind of test: cell-free GSK3 kinase assay (KinaseGlo luciferase). The class given is biochemical. The note with it: Table 1; 5 μM ATP, 1 hour at 30 degrees Celsius. The protocol: Proceed to KinaseGlo luciferase reaction.
Following the completion of the kinase reaction an equal volume of KinaseGlo luciferase reagent (Promega) is added and the luminescence read using a luminescence plate reader within 5-10 minutes.
On the technique in general: In Kinase-Glo more light means more ATP remaining.
By IC50 is commonly meant the concentration that gives 50% inhibition. Consider `Cc1cc(=O)c2c(N)c(F)c(NCCNc3ccccn3)c3c2n1C1(CCC1)CCO3` [Compound 99], for which the IC50 was > 150 nM.

As for `Nc1c(F)c(NCCNc2ccccn2)c2c3c1c(=O)c(C(=O)O)cn3C1(CCC1)CO2` [Compound 44], the 50% inhibitory concentration (IC50) was 16 to 60 nM.

Take `CC(CCc1ccc(Cl)cc1)Nc1c(F)c(N)c2c(=O)c(C(=O)O)cn3c2c1OCC31CCCC1` (centres unmarked) [Compound 6]: the IC50 is 16 to 60 nM.

Take `N#Cc1cn2c3c(c(NCCCn4ccnc4)c(F)c(N)c3c1=O)OCCC21CCC1` [Compound 93]: the IC50 fell in the range of 16 to 60 nM.

Take `Nc1c(F)c(NCCCn2ccnc2)c2c3c1c(=O)c(C(=O)O)cn3C1(CCC1)CCO2` [Compound 97]: the IC50 was in the range of 16 to 60 nM.

With `N#Cc1cn2c3c(c(NCCNc4ccccn4)c(F)c(N)c3c1=O)OCCC21CCC1` [Compound 91], the IC50 lay in the range of 16 to 60 nM.

Regarding `Cc1cc(OCCNc2c(F)c(N)c3c(=O)c(C(=O)O)cn4c3c2OCC42CCCC2)ccc1Cl` [Compound 10], the IC50 was 16 to 60 nM.

Turning to `Nc1c(F)c(N[C@@H]2CC[C@H](c3ccccn3)C2)c2c3c1c(=O)c(C(=O)O)cn3C1(CCCC1)CO2` [Compound 79], the IC50 is > 150 nM.

Regarding `Nc1c(F)c(NCCN2CCc3ccccc32)c2c3c1c(=O)c(C(=O)O)cn3C1(CCCC1)CO2` [Compound 24], the half-inhibitory concentration (IC50) was in the range of 61 to 150 nM.

Take `Nc1c(F)c(NCCCc2ccncc2)c2c3c1c(=O)c(C(=O)O)cn3C1(CCCC1)CO2` [Compound 80]: the IC50 is < 15 nM.

On to `Nc1c(F)c(NCCOc2ccccc2)c2c3c1c(=O)c(C(=O)O)cn3C1(CCCC1)CO2` [Compound 66], for which the 50% inhibitory concentration (IC50) is > 150 nM.

As to `Nc1c(F)c(NCCCc2ccccn2)c2c3c1c(=O)c(C(=O)O)cn3C1(CCC1)CCO2` [Compound 56], the IC50 is < 15 nM.

As to `N#Cc1ccc(CCCNc2c(F)c(N)c3c(=O)c(C(=O)O)cn4c3c2OCC42CCCC2)nc1` [Compound 81], the IC50 was < 15 nM.

For the compound `Nc1c(F)c(N[C@H]2CC[C@H](n3ccnc3)C2)c2c3c1c(=O)c(C(=O)O)cn3C1(CCCC1)CO2` [Compound 77], the IC50 was < 15 nM.

As to `Nc1c(F)c(NCCCc2ccc(Cl)cc2)c2c3c1c(=O)c(C(=O)O)cn3C1(CCCC1)CO2` [Compound 40], the IC50 was > 150 nM.

Consider `Nc1c(F)c(NCCNc2ccccn2)c2c3c1c(=O)c(C(=O)O)cn3C1(CCC1)CCO2` [Compound 47], for which the IC50 was 16 to 60 nM.

As to `Nc1c(F)c(NCCCc2ccccn2)c2c3c1c(=O)c(-c1nnn[nH]1)cn3C1(CCCC1)CO2` [Compound 35], the IC50 was 16 to 60 nM.

Take `Cc1cc(C)n(CCCNc2c(F)c(N)c3c(=O)c(C(=O)O)cn4c3c2OCC42CCCC2)n1` [Compound 41]: the IC50 was 16 to 60 nM.

For the compound `Cc1ccc(OCCNc2c(F)c(N)c3c(=O)c(C(=O)O)cn4c3c2OCC42CCCC2)cc1` [Compound 25], the concentration for half-maximal inhibition (IC50) was 16 to 60 nM.

Consider `Cc1nnc(SCCNc2c(F)c(N)c3c(=O)c(C(=O)O)cn4c3c2OCC42CCCC2)[nH]1` [Compound 16], for which the IC50 was < 15 nM.

Consider `Nc1c(F)c(NCCCc2ccc(F)cc2)c2c3c1c(=O)c(C(=O)O)cn3C1(CCC1)CCO2` [Compound 59], for which the IC50 is < 15 nM.

As for `Cc1nn(C)c(C)c1CCCNc1c(F)c(N)c2c(=O)c(C(=O)O)cn3c2c1OCC31CCCC1` [Compound 32], the IC50 is < 15 nM.

Regarding `Nc1c(F)c(NCCNC2=NS(=O)(=O)c3ccccc32)c2c3c1c(=O)c(C(=O)O)cn3C1(CCCC1)CO2` [Compound 20], the IC50 was < 15 nM.

`Nc1c(F)c(NCCNc2ccccn2)c2c3c1c(=O)c(C(=O)O)cn3C1(CCO2)CC1` [Compound 46]: the half-maximal inhibitory concentration (IC50) was 16 to 60 nM.

Take `Nc1c(F)c(N[C@H]2C[C@H]2Cc2ccccn2)c2c3c1c(=O)c(C(=O)O)cn3C1(CCCC1)CO2` [Compound 63]: the IC50 is > 150 nM.

Consider `Nc1c(F)c(NCCCc2ccccc2)c2c3c1c(=O)c(C(=O)O)cn3C1(CCCC1)CO2` [Compound 65], for which the IC50 is < 15 nM.

Turning to `Cc1ccc2nc(C)cc(NCCNc3c(F)c(N)c4c(=O)c(C(=O)O)cn5c4c3OCC53CCCC3)c2c1` [Compound 15], the 50% inhibitory concentration (IC50) was < 15 nM.

Take `Nc1c(F)c(NCCOc2ccc(-c3ccccc3)cc2)c2c3c1c(=O)c(C(=O)O)cn3C1(CCCC1)CO2` [Compound 75]: the IC50 is > 150 nM.

For `Nc1c(F)c(NCCCn2cncn2)c2c3c1c(=O)c(C(=O)O)cn3C1(CCCC1)CO2` [Compound 3], the IC50 was 61 to 150 nM.

As for `Nc1c(F)c(NCCSc2c[nH]c3ccccc23)c2c3c1c(=O)c(C(=O)O)cn3C1(CCCC1)CO2` [Compound 11], the IC50 is < 15 nM.

As to `Nc1c(F)c(NCCCn2ccnc2)c2c3c1c(=O)c(C(=O)O)cn3C1(CCC1)CCO2` [Compound 60], the IC50 is < 15 nM.

Turning to `Cc1c(C(=O)O)c(=O)c2c(N)c(F)c(NCCNc3ccccn3)c3c2n1C1(CCC1)CCO3` [Compound 94], the IC50 was in the range of 16 to 60 nM.

With `Cc1cc(NCCNc2c(F)c(N)c3c(=O)c(C(=O)O)cn4c3c2OCC42CCCC2)nc2ccccc12` [Compound 2], the IC50 fell in the range of 61 to 150 nM.

As to `Nc1c(F)c(NCC(O)Cn2cnc3ccccc32)c2c3c1c(=O)c(C(=O)O)cn3C1(CCCC1)CO2` (centres unmarked) [Compound 22], the IC50 lay in the range of 61 to 150 nM.

For `NC(=O)c1cn2c3c(c(NCCNc4ccccn4)c(F)c(N)c3c1=O)OCCC21CCC1` [Compound 86], the IC50 was < 15 nM.

`Nc1c(F)c(N2CCC(Nc3ccccn3)C2)c2c3c1c(=O)c(C(=O)O)cn3C1(CCCC1)CO2` (centres unmarked) [Compound 98]: the half-inhibitory concentration (IC50) is > 150 nM.

Consider `Nc1c(F)c(NCCCc2ccccn2)c2c3c1c(=O)ccn3C1(CCCC1)CO2` [Compound 85], for which the half-maximal inhibitory concentration (IC50) was 16 to 60 nM.

In the case of `CC(C)c1ccc(OCCNc2c(F)c(N)c3c(=O)c(C(=O)O)cn4c3c2OCC42CCCC2)cc1` [Compound 67], the IC50 is > 150 nM.

For the compound `Cc1nn(C)c(C)c1CCCNc1c(F)c(N)c2c(=O)c(C#N)cn3c2c1OCC31CCCC1` [Compound 38], the IC50 is < 15 nM.

As to `Cc1[nH]ncc1CCCNc1c(F)c(N)c2c(=O)c(C(=O)O)cn3c2c1OCC31CCCC1` [Compound 42], the IC50 is < 15 nM.

Regarding `Nc1c(F)c(NCCNC(=O)c2ccccn2)c2c3c1c(=O)c(C(=O)O)cn3C1(CCC1)CCO2` [Compound 58], the IC50 was in the range of 16 to 60 nM.

In the case of `CC(COc1ccc(Cl)cc1)Nc1c(F)c(N)c2c(=O)c(C(=O)O)cn3c2c1OCC31CCCC1` (centres unmarked) [Compound 74], the IC50 is > 150 nM.

On to `Nc1c(F)c(NCCN2CCC(c3ccccc3)C2)c2c3c1c(=O)c(C(=O)O)cn3C1(CCCC1)CO2` (centres unmarked) [Compound 71], for which the IC50 is > 150 nM.

Take `N=C(NO)c1cn2c3c(c(NCCCn4ccnc4)c(F)c(N)c3c1=O)OCC21CCCC1` [Compound 43]: the IC50 lay within 61 to 150 nM.

Regarding `Nc1c(F)c(NCCSc2nnnn2-c2ccccc2)c2c3c1c(=O)c(C(=O)O)cn3C1(CCCC1)CO2` [Compound 21], the 50% inhibitory concentration (IC50) was < 15 nM.

Regarding `CC1COc2c(NCCNc3ccccn3)c(F)c(N)c3c(=O)c(C(=O)O)cn(c23)C12CCC2` (centres unmarked) [Compound 49], the IC50 is < 15 nM.

As for `COc1ccc(CCCNc2c(F)c(N)c3c(=O)c(C(=O)O)cn4c3c2OCC42CCCC2)cc1` [Compound 28], the IC50 is < 15 nM.

Still in this test, the particulars now being: Table 2; 5 μM ATP, 1 hour at 30 degrees Celsius.
Take `N#Cc1cn2c3c(c(NCCCc4cccnc4)c(F)c(N)c3c1=O)OCC21CC1`: the IC50 was < 15 nM.

On to `N#Cc1cn2c3c(c(NCCCc4ccncc4)c(F)c(N)c3c1=O)OCC21CCCC1`, for which the IC50 is < 15 nM.

`N#Cc1cn2c3c(c(NCCCc4ccccn4)c(F)c(N)c3c1=O)OCC21CC1`: the IC50 is < 15 nM.
